# Test results: patent publication US20250236589A1, “THERAPEUTIC PHENETHYLAMINE COMPOSITIONS AND METHODS OF USE” (Cybin IRL Limited, priority 2022, published 2025)
# Where two headings read alike, the source gives them in different places.
# Experiments:
# human 5-HT2B receptor [1] = target: T1, human 5-HT2B receptor (Homo sapiens (Human), UniProt P41595); assay: 5-HT2B radioligand binding ([125I](±)DOI)
# Method: In another series of 5-HT1A,2A,2B radioligand competition binding assays, the conditions were as follows: For 5-HT1A assays, cell membrane homogenates (˜30 μg protein) derived from HEK-293 cells expressing human 5-HT1ARs were incubated with 0.5 nM [^3H]8-hydroxy-2-(di-n-propylamino)tetralin ([^3H]8-OH-DPAT) for 60 min at room temperature in the presence or absence of the test article. Non-specific binding was determined in the presence of 10 μM 8-OH-DPAT. Samples were then analyzed as described above, with only immaterial differences. […] Samples were then analyzed as described above.
# human 5-HT2B receptor [2] = target: T1, human 5-HT2B receptor; assay: 5-HT2B functional assay, IP1 (IPOne); assay type: cell-based; conditions: for Emax: IP1 assay, relative to 5-HT
# Method: 5-HT2A,2B,2C receptor-mediated Gq activation—canonical signaling pathways—[phosphoinositide hydrolysis leading to the production of inositol phosphate 1 (IP1, IPOne, Cisbio assay) or direct G-protein activation using TRUPATH technology]were measured as previously described (Porter, R. H. P., Benwell, K. R., Lamb, H., Malcolm, C. S., Allen, N. F., Revell, D. F., Adams, D. R. and Sheardown, M. J., 1999, Functional characterization of agonists at recombinant human 5-HT2a, 5HT2b and 5-HT2c receptors in CHO-K1 cells, Brit J Pharmacol 128, 13; Olsen, R. H. J., DiBerto, J. F., English, J. G. et al. TRUPATH, an open-source biosensor platform for interrogating the GPCR transducerome. […] Briefly, for the IPOne assay, for 5-HT2ARs, CHO-K1 or HEK-293 cells were incubated with test articles and 5-HT (positive control) in stimulation buffer containing LiCl. After incubation, cells were lysed and fluorescence acceptor and donor were added. FRET was measured after 60 min at room temperature using a microplate reader (Envision, Perkin Elmer). TRUPATH assays followed a similar workflow, except that different reagents were used, and LiCl was not included in the samples; the protocol was based on the report by Olsen, R. H. J. et al., cited above.
# 5-HT1A (h) = 5-HT1A (h) (Homo sapiens (Human), UniProt P08908); assay: Off-target screen, radioligand displacement at 10 μM; assay type: binding; conditions: agonist radioligand
# Dopamine D1 (h) = Dopamine D1 (h) (Homo sapiens (Human), UniProt P21728); assay: as above; assay type: binding
# Chain of Dopamine D1 (h) (P21728 whole entry, looked up): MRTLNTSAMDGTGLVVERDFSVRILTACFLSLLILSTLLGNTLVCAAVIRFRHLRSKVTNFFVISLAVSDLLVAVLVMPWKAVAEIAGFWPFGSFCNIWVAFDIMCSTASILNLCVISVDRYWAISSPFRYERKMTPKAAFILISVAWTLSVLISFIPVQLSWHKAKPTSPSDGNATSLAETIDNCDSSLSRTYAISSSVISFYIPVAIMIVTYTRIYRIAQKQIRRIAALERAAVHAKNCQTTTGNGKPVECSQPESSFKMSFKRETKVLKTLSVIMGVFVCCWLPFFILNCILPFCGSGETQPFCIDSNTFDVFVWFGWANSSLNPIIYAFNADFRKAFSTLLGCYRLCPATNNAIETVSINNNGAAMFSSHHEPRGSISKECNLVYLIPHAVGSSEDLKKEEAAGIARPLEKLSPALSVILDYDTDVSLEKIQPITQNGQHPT
# μ-opioid (h) = μ-opioid (h) (Homo sapiens (Human), UniProt P35372); assay: as above; assay type: binding
# [3] = test system: BZD (central) (rat cortex); assay: as above; assay type: binding
# [4] = target: Cholecystokinin CCK1 (CCKA) (h) (Homo sapiens (Human), UniProt P32238); assay: as above; conditions: read-out: binding at 10 μM
# Chain of Cholecystokinin CCK1 (CCKA) (h) (P32238 whole entry, looked up): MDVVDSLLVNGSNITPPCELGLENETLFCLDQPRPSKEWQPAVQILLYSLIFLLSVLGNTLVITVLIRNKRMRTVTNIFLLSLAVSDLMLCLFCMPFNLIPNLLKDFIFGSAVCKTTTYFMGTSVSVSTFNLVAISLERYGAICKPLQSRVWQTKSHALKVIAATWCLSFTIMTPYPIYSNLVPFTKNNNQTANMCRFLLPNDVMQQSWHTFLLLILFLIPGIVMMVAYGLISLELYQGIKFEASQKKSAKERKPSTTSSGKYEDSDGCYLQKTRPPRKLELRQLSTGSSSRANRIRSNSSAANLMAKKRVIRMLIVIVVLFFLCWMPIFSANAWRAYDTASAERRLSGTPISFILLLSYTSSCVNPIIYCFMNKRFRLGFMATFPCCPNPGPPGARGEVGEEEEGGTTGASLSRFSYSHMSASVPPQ
# D4.4 (h) = D4.4 (h) (Homo sapiens (Human), UniProt P21917); assay: as above; conditions: read-out: binding at 10 μM
# Chain of D4.4 (h) (P21917 whole entry, looked up): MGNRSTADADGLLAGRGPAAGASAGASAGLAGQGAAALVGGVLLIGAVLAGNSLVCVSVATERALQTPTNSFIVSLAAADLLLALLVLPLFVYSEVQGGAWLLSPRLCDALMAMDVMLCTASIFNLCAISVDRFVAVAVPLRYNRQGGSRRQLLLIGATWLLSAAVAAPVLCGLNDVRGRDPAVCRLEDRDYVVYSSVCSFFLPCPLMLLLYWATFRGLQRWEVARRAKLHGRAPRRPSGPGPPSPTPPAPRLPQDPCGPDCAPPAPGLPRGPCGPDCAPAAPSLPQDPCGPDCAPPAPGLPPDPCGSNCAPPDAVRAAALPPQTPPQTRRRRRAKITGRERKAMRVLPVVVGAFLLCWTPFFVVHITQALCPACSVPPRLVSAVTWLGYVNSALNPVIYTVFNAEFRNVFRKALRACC
# [5] = test system: Platelet-Derived Growth Factor (PDGF) (m); assay: as above; assay type: binding, mouse
# Neuropeptide Y Y2 (h) = Neuropeptide Y Y2 (h) (Homo sapiens (Human), UniProt P49146); assay: as above; conditions: read-out: binding at 10 μM
# Chain of Neuropeptide Y Y2 (h) (P49146 whole entry, looked up): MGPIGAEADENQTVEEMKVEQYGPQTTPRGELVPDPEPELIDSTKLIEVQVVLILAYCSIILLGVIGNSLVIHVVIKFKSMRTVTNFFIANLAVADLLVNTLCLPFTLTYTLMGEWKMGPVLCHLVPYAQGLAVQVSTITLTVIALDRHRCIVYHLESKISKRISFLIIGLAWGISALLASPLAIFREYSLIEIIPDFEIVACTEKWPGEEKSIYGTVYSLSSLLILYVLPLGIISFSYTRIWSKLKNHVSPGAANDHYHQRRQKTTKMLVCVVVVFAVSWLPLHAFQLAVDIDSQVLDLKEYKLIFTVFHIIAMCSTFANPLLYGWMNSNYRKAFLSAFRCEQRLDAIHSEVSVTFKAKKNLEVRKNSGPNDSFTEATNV
# dopamine transporter (h) = dopamine transporter (h) (Homo sapiens (Human), UniProt Q01959); assay: as above; conditions: read-out: binding at 10 μM
# [6] = test system: bdnf, homer1, Egr2, cFos mRNA (frontal cortex); assay: Brain markers of neuroplasticity, gene expression in frontal cortex; assay type: in vivo, mouse
# Method: To evaluate the effects of I-1 on brain markers of neuroplasticity, male C57BL/6J mice were dosed as described in Table 10.
# On Day 4, the animals were euthanized 2 hours post-dose. The left frontal cortex was dissected and stored in RNAlater.
# Data were log transformed and analyzed by one-way analysis of variance. Each treatment was compared to vehicle by multiple comparisons. […] Moreover, increased homer1 expression, which is associated with the formation of postsynaptic scaffolds that cluster and colocalize NMDAR and mGluR was observed (FIG. 57C); and increased Egr2 expression, a […] that has been proposed to be a marker for psychedelic activation of 5-HT2A receptors (Gonzalez-Maeso et al., Transcriptome fingerprints distinguish hallucinogenic and nonhallucinogenic 5-hydroxytryptamine 2A receptor agonist effects in mouse somatosensory cortex. J Neurosci. 2003; 23(26), 8836-43) was observed (FIG. 57D). Upregulation of bdnf, a neurotrophin that regulates the survival and growth of neurons and influences synaptic efficiency and plasticity, was also observed (FIG. 57A).
# [7] = 2 h after fourth dose of 0.3 mg/kg s.c. (group C) vs vehicle
# [8] = 2 h after single 3 mg/kg s.c. (group B) vs vehicle
# T1 sequence (P41595 whole entry, looked up): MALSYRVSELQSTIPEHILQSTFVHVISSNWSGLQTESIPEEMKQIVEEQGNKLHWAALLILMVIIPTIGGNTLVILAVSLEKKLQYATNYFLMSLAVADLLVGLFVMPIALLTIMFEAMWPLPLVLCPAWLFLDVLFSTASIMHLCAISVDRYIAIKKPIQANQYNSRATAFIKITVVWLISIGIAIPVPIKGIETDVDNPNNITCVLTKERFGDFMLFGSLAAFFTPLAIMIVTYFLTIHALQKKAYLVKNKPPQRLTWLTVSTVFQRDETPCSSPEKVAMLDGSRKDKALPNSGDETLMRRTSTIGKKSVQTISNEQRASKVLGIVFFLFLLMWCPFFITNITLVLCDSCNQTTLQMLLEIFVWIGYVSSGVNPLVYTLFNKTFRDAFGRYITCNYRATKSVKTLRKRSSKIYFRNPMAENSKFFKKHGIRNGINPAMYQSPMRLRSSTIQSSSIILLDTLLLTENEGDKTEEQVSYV
Structure (SMILES),EC50 (human 5-HT2B receptor [2]),Emax (human 5-HT2B receptor [2]),inhibition at 10 µM (5-HT1A (h)),binding at 10 μM [3],inhibition at 10 µM [4],inhibition at 10 µM (D4.4 (h)),binding at 10 μM [5],inhibition at 10 µM (Neuropeptide Y Y2 (h)),inhibition at 10 µM (dopamine transporter (h)),further results
"COc1cc(CC(C)N)c(OC)cc1I (racemic) [DOI, (±)-2,5-dimethoxy-4-iodoamphetamine, reference compound]",16 nM,~98%,≥ 80%,"NB (inhibited less than 50% of radioligand bound to them, and therefore it can be concluded they do not bind (“no binding,” NB))",< 50%,< 50%,"NB (inhibited less than 50% of radioligand bound to them, and therefore it can be concluded they do not bind (“no binding,” NB))",< 50%,< 50%,"Ki (human 5-HT2B receptor [1]): 1.5 nM; inhibition at 10 µM (Dopamine D1 (h); read-out: binding at 10 μM): < 50%; inhibition at 10 µM (μ-opioid (h); agonist radioligand, read-out: inhibition at 10 μM): 65%"
"COc1cc(SC(F)(F)F)c(OC)cc1CCN [Compound I-1, 2-(2,5-dimethoxy-4-((trifluoromethyl)thio)phenyl)ethan-1-amine]",88 nM,~84%,> 80%,"NB (inhibited less than 50% of radioligand bound to them, and therefore it can be concluded they do not bind (“no binding,” NB))",< 50%,< 50%,"NB (inhibited less than 50% of radioligand bound to them, and therefore it can be concluded they do not bind (“no binding,” NB))",< 50%,< 50%,"inhibition at 10 µM (human 5-HT2B receptor [1]): > 80%; Ki (human 5-HT2B receptor [1]; radioligand [125I](±)DOI, read-out: 5-HT2B, Ki): 6.7 nM; Egr2 mRNA expression [6, 7]: Increased expression; homer1 mRNA expression [6, 7]: Increased expression; Egr2 (krox20) mRNA expression [6, 8]: Increased expression; bdnf mRNA expression [6, 8]: Increased expression; cFos mRNA expression [6, 8]: Increased expression; homer1 mRNA expression [6, 8]: Increased expression; inhibition at 10 µM (Dopamine D1 (h); antagonist radioligand, read-out: inhibition at 10 μM): 57%; inhibition at 10 µM (μ-opioid (h); read-out: binding at 10 μM): < 50%"
